Assay results as given in patent US20220220527A1, “METHOD FOR MEASURING THE ACTIVITY OF A CULTURE OF MICROALGAE” (TotalEnergies SE, priority 2019, published 2022).

System: aerobic bacteria
Test: Dissolved oxygen measurement in an illuminated microalgae-bacteria culture sample with successive additions of substrate and inhibitor (Example 2, FIG. 4)
Type: cell-based
Conditions: culture of Nannochloropsis oculata sp. 0.3 g/L and aerobic bacteria 0.05 g/L
Method: A sample of a culture comprising microalgae of the type Nannochloropsis oculata sp. in a concentration of 0.3 g/L. and aerobic bacteria in a concentration of 0.05 g/L was transferred from a bioreactor to a chamber having a volume of 300 mL and comprising a magnetic stirrer and a source for emitting light. The source for emitting light comprised light-emitting diode strings located around the chamber.
During the whole experiment, the chamber was provided with light. In other words, several illumination steps were carried out successively, in order to conduct, during each illumination step, the measurement of the dissolved oxygen present in the sample. This measurement was carried out with a Luminescent Dissolved Oxygen (LDO) sensor (HACH) inserted in the chamber. After each illumination step, the sample was returned to the bioreactor and replaced with a new sample.
More particularly, after point 11, a total amount of 70 mg/L of CuSO4 was added to the sample.

O=S(=O)([O-])[O-].[Cu+2] [CuSO4]
effect on the activity of bacteria (oxygen production rate of the sample) (successive additions 1 to 11, total 70 mg/L CuSO4 after point 11): increasing inhibitory effect

CCO [ethanol]
effect on the activity of bacteria (dissolved oxygen concentration, oxygen consumption by respiration) (after each addition (1 to 11) of substrate): increases the activity of bacteria
